{"source": "patent US11725011B2", "about": "“Bicyclic urea kinase inhibitors and uses thereof” (The Broad Institute, Inc., priority 2016, dated 2023)", "assay_in_all_cases": "KINOMEscan", "type_in_all_cases": "binding", "settings_in_all_cases": "1 uM", "key": {"[1]": {"biological_target": "ABL1 (F317I)-phosphorylated (Homo sapiens (Human), UniProt P00519, F317I)"}, "[2]": {"biological_target": "ABL1 (Y253F)-phosphorylated (Homo sapiens (Human), UniProt P00519, Y253F)"}, "ACVRL1": {"biological_target": "ACVRL1 (Homo sapiens (Human), UniProt P37023)"}, "ASK2": {"biological_target": "ASK2 (Homo sapiens (Human), UniProt O95382)"}, "BRSK2": {"biological_target": "BRSK2 (Homo sapiens (Human), UniProt Q8IWQ3)"}, "CDK11": {"biological_target": "CDK11 (Homo sapiens (Human), UniProt Q9BWU1)"}, "CDK5": {"biological_target": "CDK5 (Homo sapiens (Human), UniProt Q00535)"}, "CHEK1": {"biological_target": "CHEK1 (Homo sapiens (Human), UniProt O14757)", "sequence (O14757 whole entry)": "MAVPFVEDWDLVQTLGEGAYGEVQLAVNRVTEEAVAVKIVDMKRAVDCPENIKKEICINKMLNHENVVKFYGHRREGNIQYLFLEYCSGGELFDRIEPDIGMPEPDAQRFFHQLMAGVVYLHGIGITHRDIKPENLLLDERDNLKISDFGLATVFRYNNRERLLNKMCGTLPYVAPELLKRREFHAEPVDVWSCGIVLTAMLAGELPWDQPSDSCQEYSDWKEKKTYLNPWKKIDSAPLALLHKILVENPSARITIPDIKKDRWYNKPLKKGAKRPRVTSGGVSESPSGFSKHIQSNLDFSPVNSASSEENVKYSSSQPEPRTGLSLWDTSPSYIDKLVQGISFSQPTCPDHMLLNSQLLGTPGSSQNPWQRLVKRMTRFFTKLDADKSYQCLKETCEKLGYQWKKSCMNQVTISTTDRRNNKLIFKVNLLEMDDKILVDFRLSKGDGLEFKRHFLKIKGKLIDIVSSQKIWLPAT"}, "CLK2": {"biological_target": "CLK2 (Homo sapiens (Human), UniProt P49760)"}, "DAPK3": {"biological_target": "DAPK3 (Homo sapiens (Human), UniProt O43293)"}, "EPHA1": {"biological_target": "EPHA1 (Homo sapiens (Human), UniProt P21709)"}, "EPHA3": {"biological_target": "EPHA3 (Homo sapiens (Human), UniProt P29320)", "sequence (P29320 21-983)": "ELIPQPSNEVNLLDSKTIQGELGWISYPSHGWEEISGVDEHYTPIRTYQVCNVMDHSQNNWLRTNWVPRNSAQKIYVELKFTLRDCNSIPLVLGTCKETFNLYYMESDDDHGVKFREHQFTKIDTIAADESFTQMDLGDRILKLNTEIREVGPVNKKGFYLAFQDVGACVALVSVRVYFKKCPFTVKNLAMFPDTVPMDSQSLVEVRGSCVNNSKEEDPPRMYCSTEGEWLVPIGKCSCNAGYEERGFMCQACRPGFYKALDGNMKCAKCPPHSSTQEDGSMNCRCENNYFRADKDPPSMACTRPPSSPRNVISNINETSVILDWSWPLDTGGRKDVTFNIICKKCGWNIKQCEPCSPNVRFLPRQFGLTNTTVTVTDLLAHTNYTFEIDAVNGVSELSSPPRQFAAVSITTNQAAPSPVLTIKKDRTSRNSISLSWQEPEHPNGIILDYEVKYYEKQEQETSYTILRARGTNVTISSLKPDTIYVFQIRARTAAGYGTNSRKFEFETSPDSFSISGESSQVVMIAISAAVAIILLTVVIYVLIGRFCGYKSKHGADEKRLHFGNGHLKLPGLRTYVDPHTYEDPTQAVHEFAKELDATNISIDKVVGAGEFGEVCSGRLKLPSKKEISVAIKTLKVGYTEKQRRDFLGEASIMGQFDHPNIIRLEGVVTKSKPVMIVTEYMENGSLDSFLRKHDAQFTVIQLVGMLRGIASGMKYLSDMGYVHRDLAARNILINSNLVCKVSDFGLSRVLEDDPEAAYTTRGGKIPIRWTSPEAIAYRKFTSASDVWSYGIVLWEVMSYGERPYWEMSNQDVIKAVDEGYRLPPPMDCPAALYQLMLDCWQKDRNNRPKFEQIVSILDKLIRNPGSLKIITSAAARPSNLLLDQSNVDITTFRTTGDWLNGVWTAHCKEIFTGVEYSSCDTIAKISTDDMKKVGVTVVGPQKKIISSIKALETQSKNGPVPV"}, "EPHB2": {"biological_target": "EPHB2 (Homo sapiens (Human), UniProt P29323)", "sequence (P29323 19-1055)": "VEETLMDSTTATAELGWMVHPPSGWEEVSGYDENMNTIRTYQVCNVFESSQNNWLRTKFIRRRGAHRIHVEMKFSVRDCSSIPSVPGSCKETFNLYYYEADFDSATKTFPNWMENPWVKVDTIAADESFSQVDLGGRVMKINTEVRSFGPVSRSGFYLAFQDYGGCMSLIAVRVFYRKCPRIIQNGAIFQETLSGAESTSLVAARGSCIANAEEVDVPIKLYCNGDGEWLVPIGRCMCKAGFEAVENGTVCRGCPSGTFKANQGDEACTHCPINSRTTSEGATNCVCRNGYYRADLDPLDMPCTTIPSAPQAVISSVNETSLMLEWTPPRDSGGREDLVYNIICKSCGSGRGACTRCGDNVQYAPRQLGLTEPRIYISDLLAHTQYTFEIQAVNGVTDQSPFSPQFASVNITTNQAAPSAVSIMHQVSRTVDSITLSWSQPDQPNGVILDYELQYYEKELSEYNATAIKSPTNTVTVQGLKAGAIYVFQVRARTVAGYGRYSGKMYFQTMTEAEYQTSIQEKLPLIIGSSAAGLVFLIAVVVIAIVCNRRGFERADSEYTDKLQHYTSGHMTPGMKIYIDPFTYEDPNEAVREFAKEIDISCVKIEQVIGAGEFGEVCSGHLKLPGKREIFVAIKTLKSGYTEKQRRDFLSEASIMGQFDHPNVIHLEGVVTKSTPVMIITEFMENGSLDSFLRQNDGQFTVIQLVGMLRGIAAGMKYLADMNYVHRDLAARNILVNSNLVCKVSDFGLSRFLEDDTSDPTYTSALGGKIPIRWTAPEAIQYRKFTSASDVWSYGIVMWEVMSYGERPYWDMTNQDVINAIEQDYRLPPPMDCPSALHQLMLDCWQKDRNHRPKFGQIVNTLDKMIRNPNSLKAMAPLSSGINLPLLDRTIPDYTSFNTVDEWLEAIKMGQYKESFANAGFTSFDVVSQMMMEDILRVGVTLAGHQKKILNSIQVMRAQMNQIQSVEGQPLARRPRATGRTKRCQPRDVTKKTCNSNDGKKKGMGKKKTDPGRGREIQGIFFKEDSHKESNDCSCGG"}, "EPHB3": {"biological_target": "EPHB3 (Homo sapiens (Human), UniProt P54753)"}, "ERK5": {"biological_target": "ERK5 (Homo sapiens (Human), UniProt Q13164)"}, "IKK-alpha": {"biological_target": "IKK-alpha (Homo sapiens (Human), UniProt O15111)"}, "IKK-epsilon": {"biological_target": "IKK-epsilon (Homo sapiens (Human), UniProt Q14164)"}, "INSRR": {"biological_target": "INSRR (Homo sapiens (Human), UniProt P14616)"}, "LCK": {"biological_target": "LCK (Homo sapiens (Human), UniProt P06239)"}, "MARK1": {"biological_target": "MARK1 (Homo sapiens (Human), UniProt Q9P0L2)"}, "MEK5": {"biological_target": "MEK5 (Homo sapiens (Human), UniProt Q13163)"}, "MKK7": {"biological_target": "MKK7 (Homo sapiens (Human), UniProt O14733)"}, "MST1": {"biological_target": "MST1 (Homo sapiens (Human), UniProt Q13043)", "sequence (Q13043 whole entry)": "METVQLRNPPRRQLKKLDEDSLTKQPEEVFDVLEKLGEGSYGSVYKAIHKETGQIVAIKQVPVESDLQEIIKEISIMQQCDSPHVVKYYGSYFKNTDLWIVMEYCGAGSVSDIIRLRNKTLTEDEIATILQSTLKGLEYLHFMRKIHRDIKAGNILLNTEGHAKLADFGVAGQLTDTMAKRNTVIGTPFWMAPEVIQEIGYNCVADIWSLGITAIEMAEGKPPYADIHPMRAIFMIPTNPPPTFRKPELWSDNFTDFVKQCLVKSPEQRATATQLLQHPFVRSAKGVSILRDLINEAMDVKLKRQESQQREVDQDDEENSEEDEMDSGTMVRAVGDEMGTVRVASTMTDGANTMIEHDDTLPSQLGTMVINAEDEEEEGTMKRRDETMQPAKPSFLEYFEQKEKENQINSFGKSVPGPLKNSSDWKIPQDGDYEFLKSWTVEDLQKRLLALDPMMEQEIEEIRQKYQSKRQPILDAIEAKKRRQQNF"}, "MST1R": {"biological_target": "MST1R (Homo sapiens (Human), UniProt Q04912)"}, "MYLK2": {"biological_target": "MYLK2 (Homo sapiens (Human), UniProt Q9H1R3)"}, "MYO3A": {"biological_target": "MYO3A (Homo sapiens (Human), UniProt Q8NEV4)"}, "p38-gamma": {"biological_target": "p38-gamma (Homo sapiens (Human), UniProt P53778)"}, "PHKG1": {"biological_target": "PHKG1 (Homo sapiens (Human), UniProt Q16816)"}, "PIK3CA (Q546K)": {"biological_target": "PIK3CA (Q546K) (Homo sapiens (Human), UniProt P42336, Q546K)"}, "PIP5K1C": {"biological_target": "PIP5K1C (Homo sapiens (Human), UniProt O60331)", "sequence (O60331 whole entry)": "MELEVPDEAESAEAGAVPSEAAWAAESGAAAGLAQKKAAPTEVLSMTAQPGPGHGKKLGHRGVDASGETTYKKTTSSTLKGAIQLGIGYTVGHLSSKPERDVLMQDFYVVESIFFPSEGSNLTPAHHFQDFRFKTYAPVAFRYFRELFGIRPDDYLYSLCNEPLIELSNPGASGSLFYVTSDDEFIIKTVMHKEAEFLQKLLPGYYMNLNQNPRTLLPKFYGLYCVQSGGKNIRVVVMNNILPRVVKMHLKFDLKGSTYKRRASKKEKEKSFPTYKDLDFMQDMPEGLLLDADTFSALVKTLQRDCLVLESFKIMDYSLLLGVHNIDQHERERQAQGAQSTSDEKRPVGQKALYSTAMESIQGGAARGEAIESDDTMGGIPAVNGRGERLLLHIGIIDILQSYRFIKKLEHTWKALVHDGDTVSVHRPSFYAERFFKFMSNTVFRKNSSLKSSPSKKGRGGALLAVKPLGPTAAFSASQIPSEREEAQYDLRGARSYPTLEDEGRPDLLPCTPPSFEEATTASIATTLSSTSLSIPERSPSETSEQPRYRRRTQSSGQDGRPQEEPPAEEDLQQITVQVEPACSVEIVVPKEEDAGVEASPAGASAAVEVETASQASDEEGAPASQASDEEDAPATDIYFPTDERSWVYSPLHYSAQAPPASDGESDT"}, "PKMYT1": {"biological_target": "PKMYT1 (Homo sapiens (Human), UniProt Q99640)"}, "PKN1": {"biological_target": "PKN1 (Homo sapiens (Human), UniProt Q16512)"}, "PLK1": {"biological_target": "PLK1 (Homo sapiens (Human), UniProt P53350)"}, "PLK3": {"biological_target": "PLK3 (Homo sapiens (Human), UniProt Q9H4B4)"}, "PRKR": {"biological_target": "PRKR (Homo sapiens (Human), UniProt P19525)"}, "PYK2": {"biological_target": "PYK2 (Homo sapiens (Human), UniProt Q14289)"}, "RIPK5": {"biological_target": "RIPK5 (Homo sapiens (Human), UniProt Q6XUX3)"}, "[3]": {"biological_target": "RPS6KA4 (Kin.Dom.2-C-terminal) (Homo sapiens (Human), UniProt O75676)", "sequence (O75676 411-674)": "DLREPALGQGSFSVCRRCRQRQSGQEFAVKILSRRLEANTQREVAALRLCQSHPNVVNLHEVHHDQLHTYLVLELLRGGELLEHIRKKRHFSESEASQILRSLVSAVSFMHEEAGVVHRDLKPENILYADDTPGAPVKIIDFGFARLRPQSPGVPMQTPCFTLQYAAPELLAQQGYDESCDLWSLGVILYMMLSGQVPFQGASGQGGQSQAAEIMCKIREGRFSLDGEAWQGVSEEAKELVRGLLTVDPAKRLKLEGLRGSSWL"}, "[4]": {"biological_target": "RSK2 (Kin.Dom.2-C-terminal) (Homo sapiens (Human), UniProt P51812)", "sequence (P51812 422-679)": "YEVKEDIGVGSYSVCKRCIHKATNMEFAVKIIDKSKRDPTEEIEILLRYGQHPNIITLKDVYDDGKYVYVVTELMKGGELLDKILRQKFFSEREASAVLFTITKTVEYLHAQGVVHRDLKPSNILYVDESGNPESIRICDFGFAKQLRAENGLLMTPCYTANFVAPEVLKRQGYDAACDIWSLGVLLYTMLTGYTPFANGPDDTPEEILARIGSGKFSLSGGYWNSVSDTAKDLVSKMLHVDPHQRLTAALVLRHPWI"}, "TAK1": {"biological_target": "TAK1 (Homo sapiens (Human), UniProt O43318)"}, "TLK1": {"biological_target": "TLK1 (Homo sapiens (Human), UniProt Q9UKI8)", "sequence (Q9UKI8 whole entry)": "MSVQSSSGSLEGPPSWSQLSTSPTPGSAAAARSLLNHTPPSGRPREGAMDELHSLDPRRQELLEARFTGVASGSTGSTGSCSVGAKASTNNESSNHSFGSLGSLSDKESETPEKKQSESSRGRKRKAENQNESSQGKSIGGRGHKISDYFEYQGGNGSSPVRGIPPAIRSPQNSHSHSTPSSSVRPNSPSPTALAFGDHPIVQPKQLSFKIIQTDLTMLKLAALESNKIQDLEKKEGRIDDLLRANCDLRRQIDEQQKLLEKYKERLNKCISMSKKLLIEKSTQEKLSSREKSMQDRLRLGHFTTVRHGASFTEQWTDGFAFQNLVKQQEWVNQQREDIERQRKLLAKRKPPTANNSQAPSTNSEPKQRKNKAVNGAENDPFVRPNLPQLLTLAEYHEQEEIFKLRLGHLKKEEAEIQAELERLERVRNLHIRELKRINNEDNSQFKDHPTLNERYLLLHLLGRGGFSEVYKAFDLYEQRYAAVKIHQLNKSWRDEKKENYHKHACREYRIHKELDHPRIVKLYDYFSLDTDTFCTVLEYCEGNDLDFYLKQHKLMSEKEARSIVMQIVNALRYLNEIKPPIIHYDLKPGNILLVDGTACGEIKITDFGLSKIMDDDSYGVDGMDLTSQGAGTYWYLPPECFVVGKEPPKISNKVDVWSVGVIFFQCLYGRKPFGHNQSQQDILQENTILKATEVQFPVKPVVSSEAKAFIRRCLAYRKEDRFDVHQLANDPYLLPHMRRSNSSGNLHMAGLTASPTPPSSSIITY"}}, "data": [{"molecule": "COc1ccc(N2C(=O)N(c3c(C)cccc3C)Cc3cnc(Nc4ccc(N5CCN(C)CC5)cc4)nc32)c(OC)c1", "note": "[HG-11-136-01]", "values": [{"measurement": "KINOMEscan ABL1 (F317I)-phosphorylated", "setting": "[1]", "result": 1.3}, {"measurement": "KINOMEscan ABL1 (Y253F)-phosphorylated", "setting": "[2]", "result": 0.15}, {"measurement": "KINOMEscan ACVRL1", "setting": "ACVRL1", "result": 16}, {"measurement": "KINOMEscan ASK2", "setting": "ASK2", "result": 46}, {"measurement": "KINOMEscan BRSK2", "setting": "BRSK2", "result": 91}, {"measurement": "KINOMEscan CDK11", "setting": "CDK11", "result": 89}, {"measurement": "KINOMEscan CDK5", "setting": "CDK5", "result": 100}, {"measurement": "KINOMEscan CHEK1", "setting": "CHEK1", "result": 82}, {"measurement": "KINOMEscan CLK2", "setting": "CLK2", "result": 35}, {"measurement": "KINOMEscan DAPK3", "setting": "DAPK3", "result": 63}, {"measurement": "KINOMEscan EPHA1", "setting": "EPHA1", "result": 0}, {"measurement": "KINOMEscan EPHA3", "setting": "EPHA3", "result": 0.8}, {"measurement": "KINOMEscan EPHB2", "setting": "EPHB2", "result": 0}, {"measurement": "KINOMEscan EPHB3", "setting": "EPHB3", "result": 0}, {"measurement": "KINOMEscan ERK5", "setting": "ERK5", "result": 84}, {"measurement": "KINOMEscan IKK-alpha", "setting": "IKK-alpha", "result": 99}, {"measurement": "KINOMEscan IKK-epsilon", "setting": "IKK-epsilon", "result": 47}, {"measurement": "KINOMEscan INSRR", "setting": "INSRR", "result": 100}, {"measurement": "KINOMEscan LCK", "setting": "LCK", "result": 0.05}, {"measurement": "KINOMEscan MARK1", "setting": "MARK1", "result": 5.1}, {"measurement": "KINOMEscan MEK5", "setting": "MEK5", "result": 0.1}, {"measurement": "KINOMEscan MKK7", "setting": "MKK7", "result": 80}, {"measurement": "KINOMEscan MST1", "setting": "MST1", "result": 2.1}, {"measurement": "KINOMEscan MST1R", "setting": "MST1R", "result": 100}, {"measurement": "KINOMEscan MYLK2", "setting": "MYLK2", "result": 81}, {"measurement": "KINOMEscan MYO3A", "setting": "MYO3A", "result": 40}, {"measurement": "KINOMEscan p38-gamma", "setting": "p38-gamma", "result": 91}, {"measurement": "KINOMEscan PHKG1", "setting": "PHKG1", "result": 100}, {"measurement": "KINOMEscan PIK3CA (Q546K)", "setting": "PIK3CA (Q546K)", "result": 94}, {"measurement": "KINOMEscan PIP5K1C", "setting": "PIP5K1C", "result": 70}, {"measurement": "KINOMEscan PKMYT1", "setting": "PKMYT1", "result": 42}, {"measurement": "KINOMEscan PKN1", "setting": "PKN1", "result": 95}, {"measurement": "KINOMEscan PLK1", "setting": "PLK1", "result": 60}, {"measurement": "KINOMEscan PLK3", "setting": "PLK3", "result": 31}, {"measurement": "KINOMEscan PRKR", "setting": "PRKR", "result": 73}, {"measurement": "KINOMEscan PYK2", "setting": "PYK2", "result": 15}, {"measurement": "KINOMEscan RIPK5", "setting": "RIPK5", "result": 2.8}, {"measurement": "KINOMEscan RPS6KA4 (Kin.Dom.2-C-terminal)", "setting": "[3]", "result": 90}, {"measurement": "KINOMEscan RSK2 (Kin.Dom.2-C-terminal)", "setting": "[4]", "result": 51}, {"measurement": "KINOMEscan TAK1", "setting": "TAK1", "result": 11}, {"measurement": "KINOMEscan TLK1", "setting": "TLK1", "result": 76}]}]}
